Measured values reported in US20100035311A1, “METHOD AND COMPOSITION FOR ENZYME STORAGE” (priority 2006, published 2010).
Where “and” joins values, the source holds several entries; their conditions need not be identical. Identical values can stand only once. Like-named read-outs stand apart in the source and are kept apart here.

Assays:
CYP74C3 [1] = test system: CYP74C3
Method: (a) UV/Visible spectra of ligand-bound forms of oxidised native CYP74C3 (2 μM, ? ); KCN (100 mM, ——); imidazole (50 mM, ---------); DMPhP (250 mM, —[…] […]—). The spectrum of dithionite (50 mM) reduced CYP74C3 (2 μM) before ([…]) and after (—[…]—) reaction with CO (˜1 mM) are also shown. […] (c) Stopped-flow diode array spectral changes over a period of 200 s for cyanide (100 mM) binding to native oxidised CYP74C3 (2 μM).
Spectra and steady-state kinetic analyses were performed using a dual beam scanning Shimadzu UV/Visible spectrophotometer (Model UV-1601, Shimadzu, Milton Keynes, U.K.). […] Stopped flow-UV/Visible data were analysed with the KineticAsyst 3.0 software package (Hi-Tech Scientific). Ligand-binding studies were carried out with both the native oxidised and the dithionite ion reduced forms of CYP74C3.

[2] = test system: Medicago truncatula hydroperoxide lyase CYP74C3 (HPLF), recombinant, wild type, N-terminal histidine-tagged; conditions: for Km / kcat: pH 6.5, 25° C.; for Km / affinity, fold change on detergent removal (Km higher) / kcat, fold difference (detergent-buffer higher than detergent-free): detergent-buffer vs detergent-free; for catalytic efficiency (kcat/Km) of detergent-free enzyme as % of enzyme purified without detergent removal: detergent-free vs detergent-buffer; for kcat as % of kcat with 13α-HPOT: purified in detergent-buffer
CYP74A1 [3] = target: T1, CYP74A1 (Arabidopsis thaliana, UniProt Q96242); conditions: pH 6.5
T1 sequence (Q96242 with tags, fused parts or gaps): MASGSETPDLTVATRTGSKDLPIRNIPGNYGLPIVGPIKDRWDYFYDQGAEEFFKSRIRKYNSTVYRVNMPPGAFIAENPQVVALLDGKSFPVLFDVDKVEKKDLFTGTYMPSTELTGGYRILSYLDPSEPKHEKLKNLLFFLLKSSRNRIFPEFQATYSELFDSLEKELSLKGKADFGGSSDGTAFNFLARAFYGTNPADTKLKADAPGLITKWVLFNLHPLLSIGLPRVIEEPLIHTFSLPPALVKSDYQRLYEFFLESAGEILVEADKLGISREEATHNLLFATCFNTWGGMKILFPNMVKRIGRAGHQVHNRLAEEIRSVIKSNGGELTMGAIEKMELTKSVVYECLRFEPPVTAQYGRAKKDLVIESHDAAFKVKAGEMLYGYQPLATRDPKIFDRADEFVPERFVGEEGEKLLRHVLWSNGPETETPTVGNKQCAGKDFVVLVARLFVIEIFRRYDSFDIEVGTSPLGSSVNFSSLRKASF

CYP74C3 [4] = test system: CYP74C3; remark: listed apart in the source
Method: (a) Dose response curve for reactivation of detergent-free CYP74C3 with the detergent Emulphogene. Detergent-free CYP74C3 was incubated with an equal volume of 100 mM sodium phosphate buffer, pH 6.5 or containing detergent (0.01-10.24 mM Emulphogene) for 15 min on ice. Samples (1.2 pmol) were then assayed for HPL activity in the standard assay with 20 μM 13α-HPOT; (b) Plot of predicted micelle concentration versus activity for calculation of Kd for Emulphogene binding and (c) Fit of velocity-substrate curves to one-site saturation model in SigmaPlot for detergent-free CYP74C3 (1.0 pmol, ∘---∘), CYP74C3 purified in detergent-buffer (0.5 pmol, ∘—∘) and detergent-free CYP74C3 after reactivation with 5 mM Emulphogene (0.5 pmol, ▾—▾). […] Error bars are the means±standard errors of at least six determinations on two different enzyme preparations.
Substrate specificity was determined by comparing kcat/Km.

AOS = conditions: ref [23′]; cited from earlier work
CYP74C3 [5] = assay type: biochemical, Medicago truncatula
Method: Protein content was estimated using the Bradford or bicinchoninic acid (BCA) assay (Pierce, Perbio Science, Cramlington, Northumberland, U.K.) according to the manufacturer's instructions. Bovine serum albumin was used as a standard. […] Substrate specificity was determined by comparing kcat/Km.

CYP74C3 [6] = conditions: cited from earlier work
CYP74A1 [7] = target: T1, CYP74A1
[8] = assay type: physicochemical
Excerpt: The following table provides a summary enzyme stability studies conducted on HPL and AOS enzymes, subjected to either freeze drying or speedvac drying, in the presence or absence of detergent. What is reported here is the degree to which enzyme activity is lost based on the storage condition. […] Subsequent re-hydration of each dried enzyme and spectroscopic analysis was used to determine the stability of the thus-treated enzymes. FIG. 11 provides stability over time information for the thus stored enzymes showing stability for at least ten weeks. UV/Vis spectra of detergent-free preparations of CYP74C3 (HPLF), CYP74A1 (AOS) and Pepper HPL were determined before and after freeze drying, as well as before and after drying in a speedvac. […] The UV/Vis spectra of preparations of CYP74C3 (HPLF), CYP74A1 (AOS) and Pepper HPL in the detergent triton before and after freeze drying were further determined. The UV/Vis spectra of these preparations were used to determine the percentage loss of protein resulting from freeze drying, or drying in a speedvac and the results are summarised in the following table.

[9] = +Detergent (purified in detergent-buffer)
[10] = Reactivated with 5 mM Emulphogene
[11] = monomer-micelle complex vs detergent-free monomer

## [N-]=[N+]=[N-] [Azide, azide]
CYP74C3 [1]
  binding of ligand to CYP74C3: shown to bind
CYP74C3 [1]; pH 6.5
  Spin state of the haem iron after ligand or detergent binding: Mixture

## N#C[S-].[K+] [KCNS, potassium thiocyanate]
CYP74C3 [1]
  binding of ligand to CYP74C3: shown to bind
CYP74C3 [1]; pH 6.5
  Spin state of the haem iron after ligand or detergent binding: Mixture

## CC/C=C\C/C=C\C=C\[C@H](CCCCCCCC(=O)O)OO [9α-HPOT, 9-S-hydroperoxy-10E,12Z,15Z-octadecatrienoic acid]
[2]; [9]
  Substrate specificity (% 13α-HPOT), from kcat/Km: 0.4%
  kcat/Km: 600000 M⁻¹ s⁻¹
  Km: 39.1 ± 7.2 µM
  kcat: 24 ± 2 s⁻¹
[2]; Detergent-free
  Substrate specificity (% 13α-HPOT), from kcat/Km: 3%
  kcat/Km: 100000 M⁻¹ s⁻¹
  Km: 81.6 ± 9.7 µM
  kcat: 8 ± 0 s⁻¹
[2]; [10]
  Substrate specificity (% 13α-HPOT), from kcat/Km: 0.4%
  kcat/Km: 600000 M⁻¹ s⁻¹
  Km: 51.7 ± 4.4 µM
  kcat: 30 ± 1 s⁻¹
[2]
  Km / affinity, fold change on detergent removal (Km higher): 2 fold
  kcat, fold difference (detergent-buffer higher than detergent-free): 3 fold
  catalytic efficiency (kcat/Km) of detergent-free enzyme as % of enzyme purified without detergent removal: 17%
  kcat as % of kcat with 13α-HPOT: 5%

## CCCCC[C@@H](/C=C/C=C\CCCCCCCC(=O)O)OO [13α-HPOD, 13-S-hydroperoxyoctadeca-9Z, 11 E-dienoic acid]
[2]; [9]
  Substrate specificity (% 13α-HPOT), from kcat/Km: 23% and 19%
  kcat/Km: 3.5e+07 M⁻¹ s⁻¹
  Km: 10.3 ± 2.1 µM
  kcat: 361 ± 19 s⁻¹
[2]; Detergent-free
  Substrate specificity (% 13α-HPOT), from kcat/Km: 19%
  kcat/Km: 600000 M⁻¹ s⁻¹
  Km: 102 ± 11.8 µM
  kcat: 59 ± 3 s⁻¹
[2]; [10]
  Substrate specificity (% 13α-HPOT), from kcat/Km: 22%
  kcat/Km: 3.35e+07 M⁻¹ s⁻¹
  Km: 14.7 ± 1.9 µM
  kcat: 493 ± 17 s⁻¹
[2]
  Km / affinity, fold change on detergent removal (Km higher): 10 fold
  kcat, fold difference (detergent-buffer higher than detergent-free): 6 fold
  catalytic efficiency (kcat/Km) of detergent-free enzyme as % of enzyme purified without detergent removal: 2%
  kcat as % of kcat with 13α-HPOT: 70%

## c1ccncc1 [Pyridine, pyridine]
CYP74C3 [1]
  binding of ligand to CYP74C3: shown to bind
CYP74C3 [1]; pH 6.5
  Spin state of the haem iron after ligand or detergent binding: Low

## polyoxyethylene 10 tridecyl ether [Emulphogene]
CYP74A1 [3]
  Kd: 10.7 ± 1.7 µM
CYP74C3 [4]
  Emulphogene concentration at which detergent-free CYP74C3 could be reactivated: exceeding 2.6 mM
  Kd: 6.9 µM
  reactivation of detergent-free CYP74C3: No reactivation
CYP74C3 [1]; pH 6.5
  Spin state of the haem iron after ligand or detergent binding: Low

## CCCCC/C=C\C=C\[C@H](CCCCCCCC(=O)O)OO [9α-HPOD]
[2]; [9]
  Substrate specificity (% 13α-HPOT), from kcat/Km: 8%
  kcat/Km: 1.29e+07 M⁻¹ s⁻¹
  Km: 15.3 ± 1.4 µM
  kcat: 197 ± 6 s⁻¹
[2]; Detergent-free
  Substrate specificity (% 13α-HPOT), from kcat/Km: 16%
  kcat/Km: 500000 M⁻¹ s⁻¹
  Km: 84.5 ± 10.1 µM
  kcat: 44 ± 2 s⁻¹
[2]; [10]
  Substrate specificity (% 13α-HPOT), from kcat/Km: 5%
  kcat/Km: 7.2e+06 M⁻¹ s⁻¹
  Km: 25.8 ± 2.2 µM
  kcat: 185 ± 7 s⁻¹
[2]
  Km / affinity, fold change on detergent removal (Km higher): 6 fold
  kcat, fold difference (detergent-buffer higher than detergent-free): 5 fold
  catalytic efficiency (kcat/Km) of detergent-free enzyme as % of enzyme purified without detergent removal: 4%
  kcat as % of kcat with 13α-HPOT: 38%

## c1cscn1 [Thiazole, thiazole]
CYP74C3 [1]
  binding of ligand to CYP74C3: shown to bind

## [C-]#[O+] [CO, Carbon monoxide]
CYP74C3 [1]; pH 6.5
  Spin state of the haem iron after ligand or detergent binding: Low

## c1ccc2[nH]cnc2c1 [BI, benzimidazole]
CYP74C3 [1]
  binding of ligand to CYP74C3: shown to bind

## c1c[nH]cn1 [Imidazole, imidazole]
AOS
  inhibition of AOS: potent inhibitor
CYP74C3 [1]
  binding of ligand to CYP74C3: shown to bind
CYP74C3 [1]; pH 6.5
  k1 of biphasic ligand binding: 2.5±0.1×10^−2 s^−1
  k2 of biphasic ligand binding: 0.33±0.03×10^−2 s^−1
CYP74C3 [5]
  activity of CYP74C3 after elution from IMAC with the ligand: virtually inactive enzyme

## CC/C=C\C[C@@H](/C=C/C=C\CCCCCCCC(=O)O)OO [13α-HPOT, 13-S-hydroperoxy-9Z,11E,15Z-octadecatrienoic acid]
[2]; [9]
  Substrate specificity (% 13α-HPOT), from kcat/Km: 100%
  kcat/Km: 1.558e+08 M⁻¹ s⁻¹
  Km: 3.3 µM
  kcat: 514 ± 11 s⁻¹
[2]; Detergent-free
  Substrate specificity (% 13α-HPOT), from kcat/Km: 100%
  kcat/Km: 3.2e+06 M⁻¹ s⁻¹
  Km: 20.9 ± 1.7 µM
  kcat: 68 ± 5 s⁻¹
[2]; [10]
  Substrate specificity (% 13α-HPOT), from kcat/Km: 100%
  kcat/Km: 1.493e+08 M⁻¹ s⁻¹
  Km: 4.4 ± 0.6 µM
[2]
  Km / affinity, fold change on detergent removal (Km higher): 6 fold
  kcat, fold difference (detergent-buffer higher than detergent-free): approximately 8 fold
  catalytic efficiency (kcat/Km) of detergent-free enzyme as % of enzyme purified without detergent removal: 2%
[2]; in detergent micelles, CYP74C3 vs CYP74A1
  CYP74C3, fold faster than CYP74A1 (kcat/Km): 2.6 fold
[2]; micelle-bound vs detergent-free
  fold increase in kcat/Km upon micelle binding: ~50 fold
[2]; [11]
  Km of monomer-micelle complex, fold lower than detergent-free monomer: 5-6 fold
  kcat of monomer-micelle complex, fold higher than detergent-free monomer: 8-10 fold
[2]; with detergent
  kcat/Km: up to 1.6×10^8 M^−1. s^−1
CYP74C3 [6]
  fold increase in kcat/Km upon micelle binding: ~50 fold
CYP74A1 [7]
  fold increase in kcat/Km after reactivation with detergent micelles: ~50 fold

## O=O [O2, dioxygen]
CYP74C3 [1]
  binding of ligand to CYP74C3: shown to bind

B1: CYP74A1: recombinant allene oxide synthase (AOS) from Arabidopsis thaliana (protein, UniProt Q96242 34-518, looked up)
Allene oxide synthase, …: SGSETPDLTVATRTGSKDLPIRNIPGNYGLPIVGPIKDRWDYFYDQGAEEFFKSRIRKYNSTVYRVNMPPGAFIAENPQVVALLDGKSFPVLFDVDKVEKKDLFTGTYMPSTELTGGYRILSYLDPSEPKHEKLKNLLFFLLKSSRNRIFPEFQATYSELFDSLEKELSLKGKADFGGSSDGTAFNFLARAFYGTNPADTKLKADAPGLITKWVLFNLHPLLSIGLPRVIEEPLIHTFSLPPALVKSDYQRLYEFFLESAGEILVEADKLGISREEATHNLLFATCFNTWGGMKILFPNMVKRIGRAGHQVHNRLAEEIRSVIKSNGGELTMGAIEKMELTKSVVYECLRFEPPVTAQYGRAKKDLVIESHDAAFKVKAGEMLYGYQPLATRDPKIFDRADEFVPERFVGEEGEKLLRHVLWSNGPETETPTVGNKQCAGKDFVVLVARLFVIEIFRRYDSFDIEVGTSPLGSSVNFSSLRKASF
CYP74A1 [7]
  fold increase in kcat/Km after reactivation with detergent micelles: 48 fold
[8]; Freeze Drying, +Emulphogene (0.3% w/v)
  Loss of active protein (%): 58.1%
[8]; Freeze Drying, +Triton X-100 (0.2% w/v)
  Loss of active protein (%): 41.3%
[8]; Freeze Drying, Detergent-free
  Loss of active protein (%): 2.3%
[8]; Speedvac Drying, +Emulphogene (0.3% w/v)
  Loss of active protein (%): 83.1%
[8]; Speedvac Drying, Detergent-free
  Loss of active protein (%): 17.6%
